Assay results reported in article PMC7413254 (Nature Communications, 2020).
Changes are numbered by the printed parent chain.

Tests used:
[1] = target: T1, PfCRT^3D7 in C2^GC03 parasites (Plasmodium falciparum, UniProt Q8IBZ9); assay: P. falciparum H+-efflux assay (rate of DV alkalinisation after concanamycin A); format: cell-based; settings: C2GC03; for Effect on rate of DV alkalinisation / H+ leak (in words): test solute 10 μM
T1 construct: PfCRT also functions as a peptide transporter within its native environment of the DV membrane; expressed in transfected cells; host or cells: P. falciparum pfcrt transfectant line C2^GC03 (saponin-isolated trophozoites)
T1 sequence (Q8IBZ9 1-424): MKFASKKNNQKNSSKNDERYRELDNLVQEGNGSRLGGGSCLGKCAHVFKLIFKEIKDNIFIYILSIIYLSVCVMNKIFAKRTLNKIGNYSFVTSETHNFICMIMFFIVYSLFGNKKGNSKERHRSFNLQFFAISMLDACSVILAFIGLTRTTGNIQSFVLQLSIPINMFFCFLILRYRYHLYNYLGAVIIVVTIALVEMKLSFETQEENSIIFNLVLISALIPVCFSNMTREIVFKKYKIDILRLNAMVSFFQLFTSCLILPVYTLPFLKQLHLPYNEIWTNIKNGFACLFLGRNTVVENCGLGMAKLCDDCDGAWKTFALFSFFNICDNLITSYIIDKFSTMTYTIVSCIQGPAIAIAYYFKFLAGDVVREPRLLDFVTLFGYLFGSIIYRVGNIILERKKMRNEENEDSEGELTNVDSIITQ

[2] = target: T2, PfCRT^Dd2 in C4^Dd2 parasites (Plasmodium falciparum, UniProt Q8IBZ9, A220S/I356T/K76T/M74I/N326S/N75E/Q271E/R371I); assay: as above; format: cell-based; settings: C4Dd2; for Effect on rate of DV alkalinisation / H+ leak (in words): test solute 10 μM
T2 construct: PfCRT also functions as a peptide transporter within its native environment of the DV membrane; expressed in transfected cells; host or cells: P. falciparum pfcrt transfectant line C4^Dd2 (saponin-isolated trophozoites)
T2 sequence (Q8IBZ9 1-424 M74I/N75E/K76T/A220S/Q271E/N326S/I356T/R371I): T1 sequence (Q8IBZ9 1-424) with M74I, N75E, K76T, A220S, Q271E, N326S, I356T, R371I

non-expressing oocytes = assay: [3H]VF-6 transport (efflux) from injected Xenopus oocytes; format: cell-based, Xenopus laevis; settings: trans-inhibition, treatment 45 mM
Procedure: The characterisation of [^3H]VF-6 transport via 23 different field and laboratory-derived isoforms of PfCRT was undertaken with oocytes two days post-cRNA-injection (Figs. 3a–j, 4; Supplementary Fig. 2). The oocytes were injected with 25 nL of ND96 buffer (pH 5.5) supplemented with [^3H]VF-6 and unlabelled VF-6 to achieve estimated intracellular concentrations of 1.4 and 200 μM, respectively. Ten oocytes that had resealed at the injection site were transferred to a 5 mL polystyrene round bottom tube (In Vitro Technologies) and washed with 3.5 mL of ND96 buffer before being transferred to separate wells of a white 96-well plate (PerkinElmer). This treatment served to establish the amount of radioactivity within the oocytes immediately prior to the commencement of the transport assay. Another 10 resealed oocytes were transferred to a 5 mL tube and washed with 3.5 mL of ND96 buffer. The assay commenced with the addition of 100 μL of ND96 buffer and the oocytes were incubated at 27.5 °C for 1.5 h (unless specified otherwise; Fig. 3b). The assay was terminated by removing the reaction buffer with a pipette and washing the oocytes twice with 3.5 mL of ice-cold ND96 buffer. Each oocyte was transferred to a separate well of a white 96-well plate. The oocytes were lysed by the addition of 20 μL of 10% (w/v) SDS and overnight incubation at room temperature. The lysed oocyte was then combined with 150 μL of MicroScint-40 microscintillant (PerkinElmer), the plate covered with a TopSeal-A (PerkinElmer), and the radioactivity measured with a MicroBeta^2 microplate liquid scintillation analyser (PerkinElmer). VF-6 transport was calculated by subtracting the amount of radioactivity (measured in counts per minute) present within the oocytes at the end of the incubation from that measured in the oocytes sampled immediately before the commencement of the assay. The pH-dependence of transport (Fig. 3c) was determined by injecting the oocytes with [^3H]VF-6 suspended in 25 nL ND96 buffer adjusted to pH 5.0, 5.5, 6.0 or 7.0, which corresponded to the injection of 2.5–250 fmol of H^+. The dependence of [^3H]VF-6 transport on Na^+ or Cl^− was examined by injecting the oocytes with [^3H]VF-6 suspended in the control ND96 buffer (pH 5.5) or a version of this buffer that lacked either Na^+ or Cl^− (Supplementary Fig. 2). Na^+ was replaced with 96 mM of KCl and Cl^− was replaced with gluconate salts of Na^+ (NaC6H11O7; 96 mM), K^+ (KC6H11O7; 2 mM), Mg^2+ (MgC12H22O14; 1 mM) and Ca^2+ (CaC12H22O14; 1.8 mM). The dependence of peptide transport on Ca^2+ was determined by injecting the oocytes with [^3H]VF-6 suspended in ND96 buffers that contained different concentrations of Ca^2+ (0–5 mM; Supplementary Fig. 2). […] The dependence of PfCRT-mediated transport on the membrane potential was examined by using (1) Na^+ ionophore III in conjunction with the Na^+ gradients listed in Supplementary Data 7 and (2) Cl^− ionophore III in conjunction with the Cl^− gradients listed in Supplementary Data 7 to clamp the membrane potential of the oocyte from −80 to +80 mV. […] The kinetic parameters for VF-6 transport via different isoforms of PfCRT (Figs. 3e and 4a) were determined in SigmaPlot Windows Version 11.0 by a least-squares fit of the Michaelis–Menten equation to the data.
A subset of assays measured the ability of solutes known to interact with PfCRT to either cis-inhibit, trans-inhibit or trans-stimulate [^3H]VF-6 transport. These experiments involved adding these solutes to either the cis- or trans-side of the membrane relative to [^3H]VF-6. […] At least five independent experiments were performed (on different days and using oocytes from different frogs), and within each experiment measurements were made from ten oocytes per treatment.

Molecule | Effect on rate of DV alkalinisation / H+ leak (in words) [1] | Effect on rate of DV alkalinisation / H+ leak (in words) [2] | Maximum rate of peptide mimic-induced DV alkalinization ([1]; mean ± SEM, n = 5, SEM) [fluorescence ratio/s] | Maximum rate of peptide mimic-induced DV alkalinization ([2]; mean ± SEM, n = 5, SEM) [fluorescence ratio/s] | [3H]VF-6 transport, non-expressing oocytes (% PfCRT3D7 control) (non-expressing oocytes; Experiment 1) | [3H]VF-6 transport, non-expressing oocytes (% PfCRT3D7 control) (non-expressing oocytes; Experiment 2) | [3H]VF-6 transport, non-expressing oocytes (% PfCRT3D7 control) (non-expressing oocytes; Experiment 3) | [3H]VF-6 transport, non-expressing oocytes (% PfCRT3D7 control) (non-expressing oocytes; Experiment 4) | [3H]VF-6 transport, non-expressing oocytes (% PfCRT3D7 control) (non-expressing oocytes; Experiment 5)
CCN(CC)CCCC(C)Nc1ccnc2cc(Cl)ccc12 (stereo not shown) [CQ, chloroquine, reference compound] | decrease slightly | increase |  |  |  |  |  |  | 
N[C@@H](Cc1c[nH]cn1)C(=O)O [L-histidine] | without effect | without effect |  |  |  |  |  |  | 
CC(C)(C)NC(=O)[C@@H]1C[C@@H]2CCCC[C@@H]2CN1C[C@@H](O)[C@H](Cc1ccccc1)NC(=O)[C@H](CC(N)=O)NC(=O)c1ccc2ccccc2n1 [Saquinavir, saquinavir, reference compound] | increased the rate of DV alkalinisation | increased the rate of DV alkalinisation | 0.039 ±0.002 | 0.011 ±0.003 |  |  |  |  | 
DPVN [VF-6-derived peptide] |  |  |  |  | 3.68 | 3.18 | 3.95 | 3.69 | 3.36
DPVNF [VF-6-derived peptide] |  |  |  |  | 3.25 | 3.26 | 3.78 | 3.25 | 3.35
PVNF [VF-6-derived peptide] |  |  |  |  | 4.26 | 4.58 | 4.28 | 4.2 | 3.58
VDPVN [VF-6-derived peptide] |  |  |  |  | 3.62 | 3.95 | 3.26 | 3.58 | 3.77
